{"source": "patent US20140031325A1", "about": "“COMBINATION THERAPY WITH LENALIDOMIDE AND A CDK INHIBITOR FOR TREATING MULTIPLE MYELOMA” (Celgene Corporation, priority 2010, published 2014)", "key": {"multiple myeloma": {"tested_on": "multiple myeloma", "experiment": "Combination therapy of lenalidomide and CDK4/CDK6 inhibitor (PD 0332991) in patients with multiple myeloma", "type": "in vivo", "protocol": "Lenalidomide and a CDK4/CDK6 inhibitor control tumor expansion and enhance tumor killing in the treatment of multiple myeloma. Patients with multiple myeloma are treated with lenalidomide (Revlimid®, 5 to 25 mg/day orally on days 1-21 in a 28 days cycle) and a CDK4/CDK6 inhibitor (PD 0332991, 25 to 150 mg/day orally on days 1-21 in a 28 days cycle). Maintenance treatment are continued until the disease progression."}, "[1]": {"tested_on": "newly diagnosed multiple myeloma", "experiment": "Combination therapy of lenalidomide and dexamethasone in patients with newly diagnosed multiple myeloma", "type": "in vivo", "text": "Most adverse events were manageable with dose modification. The combination therapy is an effective first-line therapy for the treatment of patients with newly diagnosed multiple myeloma."}, "[2]": {"settings": "lenalidomide in combination with dexamethasone, newly diagnosed multiple myeloma"}}}
{"smiles": "Nc1cccc2c1CN(C1CCC(=O)NC1=O)C2=O", "note": "(stereo not drawn) [lenalidomide, 3-(4-amino-1-oxo-1,3-dihydro-isoindol-2-yl)-piperidine-2,6-dione]", "values": [{"measurement": "activity of the therapy in multiple myeloma patients", "setting": "multiple myeloma; Revlimid 5 to 25 mg/day orally days 1-21 of 28-day cycle in combination with PD 0332991 25 to 150 mg/day orally days 1-21", "value": "highly active"}, {"measurement": "tolerability", "setting": "multiple myeloma; Revlimid 5 to 25 mg/day orally in combination with PD 0332991 25 to 150 mg/day orally, multiple myeloma patients", "value": "well tolerated"}, {"measurement": "overall response rate and complete response", "setting": "[1]; [2]", "value": "high overall response rate and complete response"}, {"measurement": "progression-free survival at 1 year", "setting": "[1]; [2]", "value": "significantly increased progression-free survival at 1 year"}, {"measurement": "tolerability", "setting": "[1]; [2]", "value": "well tolerated"}, {"measurement": "patient response", "setting": "[1]; newly diagnosed multiple myeloma patients, lenalidomide 25 mg/day days 1-21 of 28-day cycle in combination with dexamethasone 40 mg/day (days 1-4, 9-12, 17-20 or days 1, 8, 15, 22)", "value": "most of patients responded"}]}
